IC50 and inhibition data for nine molecules are collected here from ChEMBL document CHEMBL3608237, “Novel inhibitor against Malassezia globosa LIP1 (SMG1), a potential anti-dandruff target” (Bioorg Med Chem Lett, 2015).

Activity calls are given as the source filed them. No cut-off for these calls is given here.

In assay [1] the target is T1, Secreted mono- and diacylglycerol lipase LIP1 (Malassezia globosa (strain ATCC MYA-4612 / CBS 7966)(Dandruff-associated fungus), UniProt A8PUY1).
T1 sequence (A8PUY1 whole entry): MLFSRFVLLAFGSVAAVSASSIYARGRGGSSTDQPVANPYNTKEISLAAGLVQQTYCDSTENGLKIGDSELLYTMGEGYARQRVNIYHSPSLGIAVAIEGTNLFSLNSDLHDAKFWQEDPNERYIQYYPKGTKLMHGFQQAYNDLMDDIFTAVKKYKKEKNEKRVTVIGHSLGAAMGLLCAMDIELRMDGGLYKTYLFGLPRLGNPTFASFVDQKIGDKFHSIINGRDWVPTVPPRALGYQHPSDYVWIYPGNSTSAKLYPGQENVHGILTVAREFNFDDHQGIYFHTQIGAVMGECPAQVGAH
Put plainly: Inhibition of Malassezia globosa CBS 7966 LIP1 using pNPA substrate.

In assay [2] the target is T2, Secreted mono- and diacylglycerol lipase LIP1 (Malassezia globosa (strain ATCC MYA-4612 / CBS 7966)(Dandruff-associated fungus)) (UniProt A8PUY1).
T2 sequence (whole entry): T1 sequence (A8PUY1 whole entry)
Put plainly: Competitive inhibition of Malassezia globosa CBS 7966 LIP1 using pNPA substrate by Lineweaver-Burk plot method.

Assay [3] has as its target T1, Secreted mono- and diacylglycerol lipase LIP1. Put plainly: Inhibition of Malassezia globosa CBS 7966 LIP1 using pNPC substrate.
For assay [4] the target is unchanged. Put plainly: Inhibition of Malassezia globosa CBS 7966 LIP1 incubated for 1 hr using monoolein substrate.

In turn, `Cc1ccc(C(=O)Oc2ccc3ccc(O)cc3c2)cc1` registered a half-maximal inhibitory concentration (IC50) in assay [1] of 81.8 µM. Further, in assay [2], the inhibition result is “Active”. Consider `O=C1c2ccccc2C(=O)N1CCSC(=S)N1CCCCCC1`, for which it took 63.6 µM to reach half-maximal inhibition in assay [3] (IC50). With `O=C1c2ccccc2CN1CCSC(=S)N1CCOCC1`, the half-maximal inhibitory concentration (IC50) in assay [3] was above 200 µM. The molecule `O=C(NCCCCCCNC(=O)ON=C1CCCCC1)ON=C1CCCCC1` yielded an IC50 in assay [1] of 75.2 µM. Moreover, the inhibition entry in assay [2] is “Active”.

Molecule `O=C1c2ccccc2C(=O)N1CCSC(=S)N1CCOCC1` registered an IC50 in assay [3] above 200 µM. The same measure, in the same setting: then `O=C1c2ccccc2C(=O)N1CCSC(=S)N1CCCC1`, with above 200 µM. Molecule `O=C(O)c1ccc(=S)n(CC(=O)c2ccccc2)c1` registered an IC50 in assay [1] of 98.3 µM. For the same molecule, the inhibition entry in assay [2] is “Active”. In the case of `O=C1c2ccccc2CN1CCSC(=S)N1CCCC1`, half-maximal inhibition in assay [3] (IC50) required 22.9 µM. As for `O=C1c2ccccc2CN1CCSC(=S)N1CCCCCC1`, the IC50 in assay [1] was 20.1 µM; in assay [4] it was 0.19 µM; in assay [3] it was 24.4 µM. In assay [2], the inhibition entry is “Dose-dependent effect”.

Usually IC50 stands for the point on the concentration scale where inhibition reaches its midpoint. Lower therefore signals inhibition by little substance.
